The values below come from patent US8846935B2, “Indazoles” (GlaxoSmithKline LLC, priority 2010, dated 2014).

Structures can show the parent of a compound that is named as a salt.

This assay deals with T1, EZH2 within the PRC2 complex (Homo sapiens, UniProt Q15910).
T1 construct: FLAG; made in house; host or cells: Sf9 cells
Briefly: EZH2 methyltransferase scintillation proximity assay (SPA). Type of assay: biochemical. The conditions noted are these: methyltransferase activity of EZH2 in human PRC2 complex, 3H-SAM, HeLa mononucleosomes. How it is done: Compounds contained herein were evaluated for their ability to inhibit the methyltransferase activity of EZH2 within the PRC2 complex. Human PRC2 complex was prepared by co-expressing each of the 5 member proteins (FLAG-EZH2, EED, SUZ12, RbAp48, AEBP2) in Sf9 cells followed by co-purification. Enzyme activity was measured in a scintillation proximity assay (SPA) where a tritiated methyl group is transferred from 3H-SAM to a lysine residue on Histone H3 of a mononucleosome, purified from HeLa cells. Mononucleosomes were captured on SPA beads and the resulting signal is read on a ViewLux plate reader.
Part A. Compound Preparation
• 1. Prepare 10 mM stock of compounds from solid in 100% DMSO. • 2. Set up an 11-point serial dilution (1:3 dilution, top concentration 10 mM) in 100% DMSO for each test compound in a 384 well plate leaving columns 6 and 18 for DMSO controls. • 3. Dispense 100 nL of compound from the dilution plate into reaction plates (Grenier Bio-One, 384-well, Cat#784075). Part B. Reagent Preparation Prepare the following solutions: • 1. 50 mM Tris-HCl, pH 8: Per 1 L of base buffer, combine 1 M Tris-HCl, pH 8 (50 mL) and distilled water (950 mL). • 2. 1× Assay Buffer: Per 10 mL of 1× Assay Buffer, combine 50 mM Tris-HCl, pH 8 (9958 uL), 1 M MgCl2 (20 uL), 2 M DTT (20 uL), and 10% Tween-20 (2 uL) to provide a final concentration of 50 mM Tris-HCl, pH 8, 2 mM MgCl2, 4 mM DTT, 0.002% Tween-20. • 3. 2× Enzyme Solution: Per 10 mL of 2× Enzyme Solution, combine 1× Assay Buffer and PRC2 complex to provide a final enzyme concentration of 10 nM. • 4. SPA Bead Suspension: Per 1 mL of SPA Bead Suspension, combine PS-PEI coated LEADSeeker beads (40 mg) and ddH2O (1 mL) to provide a final concentration of 40 mg/mL. • 5. 2× Substrate Solution: Per 10 mL of 2× Substrate Solution, combine 1× Assay Buffer (9728.55 uL), 800 ug/mL mononucleosomes (125 uL), 1 mM cold SAM (4 uL), and 7.02 uM 3H-SAM (142.45 uL; 0.55 mCi/mL) to provide a final concentration of 5 ug/mL nucleosomes, 0.2 uM cold SAM, and 0.05 uM 3H-SAM. • 6. 2.67× Quench/Bead Mixture: Per 10 mL of 2.67× Quench/Bead Mixture, combine ddH2O (9358 uL), 10 mM cold SAM (267 uL), 40 mg/mL Bead Suspension (375 uL) to provide a final concentration of 100 uM cold SAM and 0.5 mg/mL SPA beads. Part C. Assay Reaction in 384-well Grenier Bio-One Plates Compound Addition • 1. Dispense […] of 100× Compound to test wells (as noted above). • 2. Dispense […] of 100% DMSO to columns 6 & 18 for high and low controls, respectively. Assay • 1. Dispense 5 uL/well of 1× Assay Buffer to column 18 (low control reactions). • 2. Dispense 5 uL/well of 2× Enzyme Solution to columns 1-17, 19-24. • 3. Spin assay plates for ˜1 minute at 500 rpm. • 4. Stack the assay plates, covering the top plate. • 5. Incubate the compound/DMSO with the enzyme for 30 minutes at room temperature. • 6. Dispense 5 uL/well of 2× Substrate Solution to columns 1-24. • 7. Spin assay plates for ˜1 minute at 500 rpm. • 8. Stack the assay plates, covering the top plate. • 9. Incubate the assay plates at room temperature for 1 hour. Quench/Bead Addition • 1. Dispense 5 uL/well of the 3× Quench/Bead Mixture to columns 1-24. • 2. Seal the top of each assay plate with adhesive TopSeal. • 3. Spin assay plates for ˜1 minute at 500 rpm. • 4. Equilibrate the plates for >20 min. Read Plates • 1. Read the assay plates on the Viewlux Plate Reader utilizing the 613 nm emission filter with a 300 s read time. Reagent addition can be done manually or with automated liquid handler. *The final DMSO concentration in this assay is 1%. *The positive control is in column 6; negative control is in column 18. *Final starting concentration of compounds is 100 μM. Part D. Data Analysis
Percent inhibition was calculated relative to the DMSO control for each compound concentration and the resulting values were fit using standard IC50 fitting parameters within the ABASE data fitting software package.
For orientation: In a scintillation proximity assay essentially only radioactivity close to the scintillant gives light.

T1 sequence (Q15910 whole entry): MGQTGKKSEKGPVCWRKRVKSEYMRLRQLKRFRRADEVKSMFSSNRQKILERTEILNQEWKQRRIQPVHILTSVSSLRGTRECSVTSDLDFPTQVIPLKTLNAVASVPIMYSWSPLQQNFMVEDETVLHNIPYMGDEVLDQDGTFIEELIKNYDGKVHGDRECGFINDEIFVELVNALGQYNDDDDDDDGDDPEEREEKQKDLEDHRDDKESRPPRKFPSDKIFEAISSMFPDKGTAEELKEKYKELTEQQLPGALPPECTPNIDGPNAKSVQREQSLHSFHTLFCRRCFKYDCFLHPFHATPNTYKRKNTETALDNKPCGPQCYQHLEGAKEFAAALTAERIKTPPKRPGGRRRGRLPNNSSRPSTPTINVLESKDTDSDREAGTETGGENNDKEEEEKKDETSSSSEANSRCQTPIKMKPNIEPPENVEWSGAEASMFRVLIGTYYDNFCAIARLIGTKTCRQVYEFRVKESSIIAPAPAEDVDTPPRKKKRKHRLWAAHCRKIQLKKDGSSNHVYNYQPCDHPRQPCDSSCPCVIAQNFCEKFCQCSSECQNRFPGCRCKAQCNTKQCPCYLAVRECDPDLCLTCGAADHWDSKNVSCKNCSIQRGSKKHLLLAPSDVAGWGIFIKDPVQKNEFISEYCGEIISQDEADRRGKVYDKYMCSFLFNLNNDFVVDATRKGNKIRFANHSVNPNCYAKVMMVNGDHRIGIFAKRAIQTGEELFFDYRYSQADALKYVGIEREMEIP
T1 sequence (O75530 whole entry partner): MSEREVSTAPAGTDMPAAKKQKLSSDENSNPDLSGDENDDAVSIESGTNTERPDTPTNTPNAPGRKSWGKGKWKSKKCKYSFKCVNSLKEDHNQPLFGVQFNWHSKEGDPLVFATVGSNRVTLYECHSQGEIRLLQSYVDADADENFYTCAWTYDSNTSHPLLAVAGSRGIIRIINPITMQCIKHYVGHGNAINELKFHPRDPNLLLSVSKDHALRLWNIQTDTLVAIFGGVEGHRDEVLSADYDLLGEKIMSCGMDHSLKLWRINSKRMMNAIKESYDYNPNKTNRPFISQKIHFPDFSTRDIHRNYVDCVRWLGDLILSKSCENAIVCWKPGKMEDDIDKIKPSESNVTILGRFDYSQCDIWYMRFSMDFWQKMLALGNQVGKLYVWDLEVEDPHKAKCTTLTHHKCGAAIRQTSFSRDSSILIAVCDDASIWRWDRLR
T1 sequence (Q15022 whole entry partner): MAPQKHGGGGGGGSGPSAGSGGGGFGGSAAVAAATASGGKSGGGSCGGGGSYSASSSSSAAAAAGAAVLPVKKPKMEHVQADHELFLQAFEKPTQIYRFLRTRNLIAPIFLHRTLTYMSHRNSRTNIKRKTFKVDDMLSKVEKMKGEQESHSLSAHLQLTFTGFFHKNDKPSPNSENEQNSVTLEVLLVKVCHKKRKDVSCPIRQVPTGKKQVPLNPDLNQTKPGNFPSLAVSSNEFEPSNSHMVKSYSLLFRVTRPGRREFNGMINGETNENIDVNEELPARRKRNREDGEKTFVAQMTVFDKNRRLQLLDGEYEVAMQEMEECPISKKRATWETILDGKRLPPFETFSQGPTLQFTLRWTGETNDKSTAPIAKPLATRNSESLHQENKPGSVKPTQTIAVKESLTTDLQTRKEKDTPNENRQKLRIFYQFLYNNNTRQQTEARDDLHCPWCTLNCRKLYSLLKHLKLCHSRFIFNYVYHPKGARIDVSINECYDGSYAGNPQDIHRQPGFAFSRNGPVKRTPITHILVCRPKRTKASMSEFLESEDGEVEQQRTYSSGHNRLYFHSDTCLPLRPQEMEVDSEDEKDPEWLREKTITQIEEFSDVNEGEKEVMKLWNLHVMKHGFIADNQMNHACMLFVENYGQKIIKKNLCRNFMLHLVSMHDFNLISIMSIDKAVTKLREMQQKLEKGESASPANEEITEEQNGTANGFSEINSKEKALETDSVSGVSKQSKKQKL
T1 sequence (Q09028 whole entry partner): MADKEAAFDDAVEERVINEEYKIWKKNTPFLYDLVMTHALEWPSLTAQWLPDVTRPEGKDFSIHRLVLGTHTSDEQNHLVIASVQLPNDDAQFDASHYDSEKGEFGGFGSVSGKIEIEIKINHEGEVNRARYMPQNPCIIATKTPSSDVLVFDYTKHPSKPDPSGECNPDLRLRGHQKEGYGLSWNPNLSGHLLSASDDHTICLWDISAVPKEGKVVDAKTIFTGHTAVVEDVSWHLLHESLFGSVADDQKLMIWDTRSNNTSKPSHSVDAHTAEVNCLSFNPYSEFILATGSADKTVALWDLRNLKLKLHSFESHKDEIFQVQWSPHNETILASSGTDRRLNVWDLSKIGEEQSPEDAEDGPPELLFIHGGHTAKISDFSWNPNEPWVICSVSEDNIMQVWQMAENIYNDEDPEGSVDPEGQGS
T1 sequence (Q6ZN18 whole entry partner): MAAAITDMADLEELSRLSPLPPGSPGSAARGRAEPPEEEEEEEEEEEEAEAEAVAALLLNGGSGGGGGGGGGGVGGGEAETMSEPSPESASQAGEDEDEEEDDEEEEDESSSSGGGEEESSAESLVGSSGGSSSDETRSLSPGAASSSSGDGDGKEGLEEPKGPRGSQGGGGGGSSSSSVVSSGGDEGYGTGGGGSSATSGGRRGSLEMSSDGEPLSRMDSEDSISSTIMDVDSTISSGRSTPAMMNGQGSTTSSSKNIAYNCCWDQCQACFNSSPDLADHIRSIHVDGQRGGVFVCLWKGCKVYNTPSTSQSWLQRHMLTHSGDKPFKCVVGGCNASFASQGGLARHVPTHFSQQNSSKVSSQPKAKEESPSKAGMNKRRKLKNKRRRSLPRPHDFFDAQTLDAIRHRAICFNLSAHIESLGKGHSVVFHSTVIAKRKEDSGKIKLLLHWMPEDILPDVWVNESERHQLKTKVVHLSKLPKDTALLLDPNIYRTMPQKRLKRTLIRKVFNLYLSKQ

What is called IC50 is the concentration needed to halve the response being measured. Higher therefore signals weaker potency in that assay. Regarding `CCCc1cc(C)[nH]c(=O)c1CNC(=O)c1cc(-c2ccsc2)cc2c1cnn2C(C)C` [Example 31, N-((1,2-dihydro-6-methyl-2-oxo-4-propylpyridin-3-yl)methyl)-1-isopropyl-6-(thiophen-3-yl)-1H-indazole-4-carboxamide], half-maximal inhibition (IC50) was put at 20 nM.
The same measure for `Cc1cc(C)c(CNC(=O)c2cc(Br)cc3c2cnn3C(C)C)c(=O)[nH]1` [Example 3, 6-Bromo-N-[(4,6-dimethyl-2-oxo-1,2-dihydro-3-pyridinyl)methyl]-1-(1-methylethyl)-1H-indazole-4-carboxamide]: 158 nM.
The same measure for `CCCc1cc(C)[nH]c(=O)c1CNC(=O)c1cc(-c2ccc(CN(C)C)cc2)cc2c1cnn2C(C)C` [Example 33, 6-{4-[(dimethylamino)methyl]phenyl}-1-(1-methylethyl)-N-[(6-methyl-2-oxo-4-propyl-1,2-dihydro-3-pyridinyl)methyl]-1H-indazole-4-carboxamide hydrochloride salt]: 5 nM; for `CCCc1cc(C)[nH]c(=O)c1CNC(=O)c1cc(-c2ccc(N)nc2)cc2c1cnn2C(C)C` [Example 21, 6-(6-amino-3-pyridinyl)-1-(1-methylethyl)-N-[(6-methyl-2-oxo-4-propyl-1,2-dihydro-3-pyridinyl)methyl]-1H-indazole-4-carboxamide]: 5 nM; for `Cc1cc(C)c(CNC(=O)c2cc(-c3ccc(N4CCNCC4)cc3)cc3c2cnn3C(C)C)c(=O)[nH]1` [Example 9, N-[(4,6-dimethyl-2-oxo-1,2-dihydro-3-pyridinyl)methyl]-1-(1-methylethyl)-6-[4-(1-piperazinyl)phenyl]-1H-indazole-4-carboxamide]: 16 nM.
`Cc1cc(C)c(CNC(=O)c2cc(-c3cccc(CN(C)C)c3)cc3c2cnn3C(C)C)c(=O)[nH]1` [Example 29, 6-{3-[(dimethylamino)methyl]phenyl}-N-[(4,6-dimethyl-2-oxo-1,2-dihydro-3-pyridinyl)methyl]-1-(1-methylethyl)-1H-indazole-4-carboxamide] displayed an IC50 of 40 nM.
The same measure for `CCCc1cc(C)[nH]c(=O)c1CNC(=O)c1cc(-c2ccc(N3CCNCC3)nc2)cc2c1cnn2C(C)C` [Example 15, 1-(1-methylethyl)-N-[(6-methyl-2-oxo-4-propyl-1,2-dihydro-3-pyridinyl)methyl]-6-[6-(1-piperazinyl)-3-pyridinyl]-1H-indazole-4-carboxamide]: 2 nM; for `Cc1cc(C)c(CNC(=O)c2cc(-c3ccc(N(C)C)nc3)cc3c2cnn3C(C)C)c(=O)[nH]1` [Example 27, 6-[6-(dimethylamino)-3-pyridinyl]-N-[(4,6-dimethyl-2-oxo-1,2-dihydro-3-pyridinyl)methyl]-1-(1-methylethyl)-1H-indazole-4-carboxamide]: 32 nM.
In turn, “1-isopropyl-N-((6-methyl-2-oxo-4-propyl-1,2-dihydropyridin-3-yl)methyl)-6-(thiophen-3-yl)-1H-indazole-4-carboxamide [Example 32]” gave an IC50 of 25 nM.
Next, `Cc1cc(Cc2ccccc2)c(CNC(=O)c2cc(Br)cc3c2cnn3C(C)C)c(=O)[nH]1` [Example 5, 6-bromo-1-(1-methylethyl)-N-{[6-methyl-2-oxo-4-(phenylmethyl)-1,2-dihydro-3-pyridinyl]methyl}-1H-indazole-4-carboxamide]: 8 nM.
Next, `CCCc1cc(C)[nH]c(=O)c1CNC(=O)c1cc(-c2ccc(N(C)C)nc2)cc2c1cnn2C(C)C` [Example 18, 6-[6-(dimethylamino)-3-pyridinyl]-1-(1-methylethyl)-N-[(6-methyl-2-oxo-4-propyl-1,2-dihydro-3-pyridinyl)methyl]-1H-indazole-4-carboxamide]: 10 nM; `CCCc1cc(C)[nH]c(=O)c1CNC(=O)c1cc(Cl)cc2c1cnn2C(C)C` [Example 1, 6-chloro-1-(1-methylethyl)-N-[(6-methyl-2-oxo-4-propyl-1,2-dihydro-3-pyridinyl)methyl]-1H-indazole-4-carboxamide]: 32 nM; `CCc1cc(C)[nH]c(=O)c1CNC(=O)c1cc(Br)cc2c1cnn2C(C)C` [Example 4, 6-bromo-N-((4-ethyl-6-methyl-2-oxo-1,2-dihydropyridin-3-yl)methyl)-1-isopropyl-1H-indazole-4-carboxamide]: 25 nM.
The same measure for `CCCc1cc(C)[nH]c(=O)c1CNC(=O)c1cc(-c2ccc(N3CCOCC3)nc2)cc2c1cnn2C(C)C` [Example 19, 1-(1-methylethyl)-N-[(6-methyl-2-oxo-4-propyl-1,2-dihydro-3-pyridinyl)methyl]-6-[6-(4-morpholinyl)-3-pyridinyl]-1H-indazole-4-carboxamide]: 6 nM.
`CCCc1cc(C)[nH]c(=O)c1CNC(=O)c1cc(-c2cnc(N)nc2)cc2c1cnn2C(C)C` [Example 20, 6-(2-amino-5-pyrimidinyl)-1-(1-methylethyl)-N-[(6-methyl-2-oxo-4-propyl-1,2-dihydro-3-pyridinyl)methyl]-1H-indazole-4-carboxamide]: half-maximal inhibition (IC50) was put at 10 nM.
Regarding `Cc1cc(C)c(CNC(=O)c2cc(-c3cnn(C)c3)cc3c2cnn3C(C)C)c(=O)[nH]1` [Example 13, N-((4,6-dimethyl-2-oxo-1,2-dihydropyridin-3-yl)methyl)-1-isopropyl-6-(1-methyl-1H-pyrazol-4-yl)-1H-indazole-4-carboxamide], the IC50 worked out at 126 nM.
The same measure for `CCCc1cc(C)[nH]c(=O)c1CNC(=O)c1cc(-c2ccc(N3CCN(C)CC3)nc2)cc2c1cnn2C(C)C` [Example 24, 1-(1-methylethyl)-N-[(6-methyl-2-oxo-4-propyl-1,2-dihydro-3-pyridinyl)methyl]-6-[6-(4-methyl-1-piperazinyl)-3-pyridinyl]-1H-indazole-4-carboxamide]: 5 nM; for `CCCc1cc(C)[nH]c(=O)c1CNC(=O)c1cc(-c2cccnc2C)cc2c1cnn2C(C)C` [Example 25, 1-(1-methylethyl)-N-[(6-methyl-2-oxo-4-propyl-1,2-dihydro-3-pyridinyl)methyl]-6-(2-methyl-3-pyridinyl)-1H-indazole-4-carboxamide]: 13 nM.
The same measure for `CCCc1cc(C)[nH]c(=O)c1CNC(=O)c1cc(-c2cncnc2)cc2c1cnn2C(C)C` [Example 22, 1-(1-methylethyl)-N-[(6-methyl-2-oxo-4-propyl-1,2-dihydro-3-pyridinyl)methyl]-6-(5-pyrimidinyl)-1H-indazole-4-carboxamide]: 20 nM; for `CCc1cc(C)[nH]c(=O)c1CNC(=O)c1cc(-c2ccc(N3CCN(C)CC3)nc2)cc2c1cnn2C(C)C` [Example 16, N-((4-ethyl-6-methyl-2-oxo-1,2-dihydropyridin-3-yl)methyl)-1-isopropyl-6-(6-(4-methylpiperazin-1-yl)pyridin-3-yl)-1H-indazole-4-carboxamide]: 3 nM.
